Where “and” joins values, the source holds several entries; their conditions need not be identical. Equal entries are not always repeated.
Legend:
[1] = biological target: T1, NANOLUC-p38 alpha fusion protein (Homo sapiens, UniProt Q16539); experiment: Pull-down and release of NANOLUC-p38 alpha fusion from HEK293 cell lysates; format: binding
T1 construct: NANOLUC luciferase (reporter fusion partner); expressed in transfected cells; host or cells: HEK293
Protocol: In this example, BIRB-chloroalkane conjugate (PBI-4834) and BIRB chloroalkane conjugate containing a cleavable linker (PBI-5131) were utilized to pull-down a NANOLUC-p38 alpha fusion protein from HEK293 cell lysates. Lysate of cells expressing NANOLUC-p38 fusion were incubated with 1 μM PBI-4834 or PBI-5131 (final concentration) while control lysates were not treated with the conjugated drugs. Following equilibration binding for 2 h, the lysates were transferred to wells of a 96-well plate containing 0.5 μl settled paramagnetic HALOTAG protein beads and incubated with shaking for 45 min. Following binding the unbound fraction was removed, the HALOTAG protein paramagnetic beads were washed 3×, and the captured NANLUC-p38 alpha fusion specifically released from the beads by one of two methods: • 1. 150 μM unconjugated BIRB796 was used to compete for binding with the conjugated BIRB796 on the NANOLUC-p38 alpha fusion for 60 min. • 2. The NANOLUC-p38 alpha fusion was rapidly released through 10 min chemical cleavage of the chloroalkane linker with 10 mM of sodium hydrosulfite (PBI-5131 is a chloroalkane cleavable linker). The released NANOLUC-p38 alpha (+PBI4834/+PBI5131) and control (-drug) were detected with NANOGLO luciferase detection reagent.

NANOLUC-DHFR fusion = biological target: T2, NANOLUC-DHFR fusion (Homo sapiens, UniProt P00374); experiment: Binding affinity to DHFR in live cells using BRET; format: cell-based; conditions: live HEK293 cells, in the presence of 1 μM PBI-4890
T2 construct: NANOLUC luciferase (reporter fusion partner); expressed in transfected cells; host or cells: HEK293
T2 sequence (P00374 1-187): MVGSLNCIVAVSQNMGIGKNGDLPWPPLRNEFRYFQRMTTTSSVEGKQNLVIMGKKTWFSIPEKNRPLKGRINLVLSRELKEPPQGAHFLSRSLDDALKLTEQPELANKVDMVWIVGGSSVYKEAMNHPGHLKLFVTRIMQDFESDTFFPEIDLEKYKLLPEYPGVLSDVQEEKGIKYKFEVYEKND
Protocol: Binding affinity to DHFR in live cells was tested using BRET. HEK293 cells in wells of a 96-well plate were transfected using PEI with plasmid DNA encoding a NANOLUC-DHFR fusion. The DNA was diluted 1:50 with a promoterless carrier DNA plasmid (PSI) to a final concentration of 80 ng total DNA per well. Twenty-four hours post-transfection, cells were serum starved for additional 24 hours and then treated with serially diluted PBI-4848 or PBI-5015 in the presence of 1 μM PBI-4890 (TOM-methotrexate derivative). After two hours of equilibration binding, furimazine (a coelenterazine derivative; Promega Corp.) was added to a final concentration of 20 μM, and BRET measured on a Varioskan luminometer.

p38 alpha = biological target: T3, p38 alpha (Homo sapiens, UniProt Q16539); experiment: Endogenous target pull-down from HEK293 cells (western blot, mass spec); format: cell-based; conditions: 10 uM conjugate, western blot and mass spec
T3 construct: isolate, e.g., pull-down, endogenous targets from cells; endogenous in cells; host or cells: HEK293
T3 sequence (Q16539 whole entry): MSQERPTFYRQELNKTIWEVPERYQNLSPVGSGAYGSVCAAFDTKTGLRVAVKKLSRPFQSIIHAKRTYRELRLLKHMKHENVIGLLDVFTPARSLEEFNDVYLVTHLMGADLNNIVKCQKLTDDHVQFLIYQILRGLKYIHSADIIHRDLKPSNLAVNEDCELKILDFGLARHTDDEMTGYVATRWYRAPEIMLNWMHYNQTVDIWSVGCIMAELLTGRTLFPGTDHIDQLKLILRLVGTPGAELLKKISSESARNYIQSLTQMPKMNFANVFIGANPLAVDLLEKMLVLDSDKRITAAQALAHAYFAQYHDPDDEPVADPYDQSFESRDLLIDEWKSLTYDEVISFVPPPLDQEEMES
Protocol: HEK293 cells were plated in a 6 well plate (2.5×10^5 cells). 48 hours post plating, a final concentration of 10 uM of BIRB-chloroalkane (PBI-4834) was added to 2 wells while control cells were not treated with the drug conjugate. Following equilibration binding for 2 h, the media was removed, and the cells were quickly washed with PBS and lysed in detergent-based lysis buffer for 10 min. Cell lysates were then transferred to an EPPENDORF tube containing 12.5 ul of settled paramagnetic HALOTAG protein beads and incubated with shaking for 15 min. Following binding, the unbound fraction was removed, the HALOTAG protein paramagnetic beads washed 3×, and the captured targets specifically released from the beads by competition with 150 μM unconjugated BIRB796 for 60 min. The released targets were subjected to mass spec analysis as well as western blot analysis using an anti-p38 alpha antibody (Abcam).

[2] = biological target: T1, NANOLUC-p38 alpha fusion protein; experiment: Pull-down of NANOLUC-p38 alpha fusion from living HEK293 cells onto HALOTAG protein beads; format: cell-based
Protocol: In this example, a BIRB-chloroalkane conjugate (PBI-4834, see below) was utilized to pull down a NANOLUC-p38 alpha fusion protein from living cells.
HEK293 cells in wells of a 96-well plate were transfected using PEI with plasmid DNA encoding NANOLUC-p38 fusion. Twenty-four hours post-transfection, cells were incubated with a final concentration of 10 μM PBI-4834 while control cells were not treated with the conjugated drug. Following equilibration binding of 2 hours, the media was removed, cells were quickly washed with PBS and lysed in a detergent-based lysis buffer for 10 minutes. The cell lysates were then transferred to wells of a 96-well plate which contained 0.5 μl settled paramagnetic HALOTAG protein beads (Promega Corp.) and incubated with shaking for 15-45 minutes. Following binding, the unbound fraction was removed and the HALOTAG protein paramagnetic beads were washed. 150 uM unconjugated BIRB796 was then added and the captured NANOLUC-p38 alpha fusion was specifically released from the beads by competition with the unconjugated BIRB796 for 60 minutes. The released NANOLUC-p38 alpha fusion protein (+PBI-4834) and control (−PBI4834) was detected using NANOGLO luciferase reagent (Promega Corp.).

[3] = biological target: T4, NANOLUC-p38 fusion protein (Homo sapiens, UniProt Q16539); experiment: Pull-down of NANOLUC-p38 fusion from cell lysates with HALOTAG protein dimer on HALOLINK plates; format: binding; conditions: p38-Nluc expressing cells treated with drug, listed as BIRB-chloroalkane
T4 construct: NANOLUC luciferase (reporter fusion partner); expressed in transfected cells
T4 sequence (Q16539 whole entry, the tested form may be a part): as the sequence (Q16539 whole entry) above
Protocol: Different amounts of a HALOTAG protein dimer (dimer of SEQ ID NO: 1) were added to cell lysates expressing a NANOLUC-p38 fusion protein (e.g., reporter/cellular-target fusion) which have or have not been treated with BIRB-chloroalkane (e.g., bioactive-agent/capture-ligand conjugate) as shown in Table 1. After 15 minute incubation, the samples were placed into wells of white, 96-well polystyrene plates activated with HALOTAG ligand (HALOLINK plates; Promega Corp.) and further incubated for 45 minutes. The wells were then washed PBS+0.05% Tween-20 (PBST). Then, 50 ul PBS followed by 50 ul of NANOGLO luciferase detection reagent was added to the wells, and luminescence measured.
Table 2 indicates differences in luminescence in samples with and without HALOTAG dimer (e.g., dimer of SEQ ID NO: 1) that indicate specific pull-down of the NANOLUC-p38 fusion protein.

[4] = biological target: T5, NANOLUC:DHFR (Nluc:DHFR) fusion (Homo sapiens, UniProt P00374); experiment: Pull-down of NANOLUC:DHFR from live HEK293 cells onto HALOTAG protein beads; format: cell-based; conditions: 10 μM conjugate, release with 150 μM methotrexate
T5 construct: NANOLUC luciferase (reporter fusion partner); expressed in transfected cells; host or cells: HEK293
T5 sequence (P00374 1-187): T2 sequence (P00374 1-187)
Protocol: The DNA was diluted 1:50 with a promoterless carrier DNA plasmid (PSI) to a final concentration of 80 ng total DNA per well. Twenty-four hours post-transfection, cells were serum starved for additional 24 h and then incubated with 10 μM PBI-4848 or PBI-5015 while control cells were not treated with the conjugated drug. Following equilibration binding of 2 h, the media was removed, and the cells quickly washed with PBS and lysed in detergent-based lysis buffer for 10 min. Cell lysates were then transferred to wells of a 96-well plate containing 0.5 μl settled paramagnetic HALOTAG protein beads and incubated with shaking for 45 min. Following binding, the unbound fraction was removed, the HALOTAG protein paramagnetic beads washed, 150 μM unconjugated methotrexate added, and the captured NANOLUC:DHFR specifically released from the beads by competition with the unconjugated methotrexate for 60 min. The released NANOLUC:DHFR (+PBI5015 or +PBI 4848) and control samples were detected by NANOGLO luciferase detection reagent.

DHFR = biological target: T6, DHFR (Homo sapiens, UniProt P00374); experiment: Endogenous target pull-down from HEK293 cells (western blot, mass spec); format: cell-based; conditions: 10 uM conjugate, western blot and mass spec
T6 construct: isolate, e.g., pull-down, endogenous targets from cells; endogenous in cells; host or cells: HEK293
T6 sequence (P00374 1-187): T2 sequence (P00374 1-187)
Protocol: HEK293 cells were plated into wells of a 6-well plate (2.5×10^5 cells/well). 48 hours post plating, a final concentration of 10 uM of Methotrexate chloroalkane (PBI-5015) was added to 2 wells while control cells were not treated with the drug conjugate. Following equilibration binding for 2 h, the media was removed, and the cells quickly washed with PBS and lysed in detergent-based lysis buffer for 10 min. Cell lysates were then transferred to an Eppendorf® tube containing 12.5 ul of settled paramagnetic HALOTAG protein beads and incubated with shaking for 15 min. Following binding, the unbound fraction was removed, the HALOTAG paramagnetic beads washed 3×, and the captured targets specifically released from the beads by competition with 150 μM unconjugated methotrexate for 60 mins. The released targets were subjected to mass spec analysis as well as western blot analysis using an anti-DHFR antibody (Sigma). […] Furthermore, although the expression level of DHFR in the cells is very low (not detected in lysate by western blot analysis), it was still efficiently captured as indicated by the western blot analysis (FIG. 8A) and mass spec analysis (FIG. 8B).

T1 sequence (Q16539 whole entry, the tested form may be a part): as the sequence (Q16539 whole entry) above

With CC(C)(C)c1cc(NC(=O)Nc2ccccc2)n(-c2cccc(CNC(=O)CCCCCOc3ccc(/N=N/c4ccc(C(=O)NCCOCCOCCCCCCCl)cc4)c(O)c3)c2)n1 [PBI-5131] the “specific capture after rapid release using chemical cleavage” value ([1]; 10 min cleavage with 10 mM sodium hydrosulfite) was “significant increase in specific capture”.
For CN(Cc1cnc2nc(N)nc(N)c2n1)c1ccc(C(=O)NC(CCC(=O)NCCOCCOCCCCCCCl)C(=O)O)cc1 (stereo not shown) [PBI-4848], the “affinity to DHFR (dose-response BRET curves)” value (NANOLUC-DHFR fusion) was “higher affinity”.
CC(C)(C)c1cc(NC(=O)Nc2ccccc2)n(-c2cccc(CNC(=O)CNC(=O)OCCOCCOCCOC(=O)NCCOCCOCCCCCCCl)c2)n1 [PBI-4834] was tested, and the “pull-down of endogenous p38 alpha” value (p38 alpha) was “specifically isolated”, the “pull-down efficiency of NANOLUC-p38 alpha” value ([1]; 1 μM conjugate, HEK293 cell lysate) was “significantly higher” and the “expressed fusion specifically captured to the beads” value ([2]; 10 μM conjugate, HEK293 cells, release with 150 uM BIRB796) was 1%. For the same compound, the “signal over background of capture on HALOTAG protein beads” value ([2]; within 15 minutes of capture) was “high signal over background”, the luminescence ([3]; 2 ug/well HALOTAG dimer) was 236900 and 397958 and 431167 and the luminescence ([3]; 6 ug/well HALOTAG dimer) was 401205 and 538956 and 596504. For the same compound, the luminescence ([3]; 8 ug/well HALOTAG dimer) was 395510 and 526903 and 610628 and the luminescence ([3]; No HALOTAG dimer) was 278085 and 275690 and 443682.
CN(Cc1cnc2nc(N)nc(N)c2n1)c1ccc(C(=O)NC(CCC(=O)NCCCCCNC(=O)OCCOCCOCCOC(=O)NCCOCCOCCCCCCCl)C(=O)O)cc1 (stereo not shown) [PBI-5015] was tested, and the “affinity to DHFR (dose-response BRET curves)” value (NANOLUC-DHFR fusion) was “lower affinity”, the “pull-down of Nluc:DHFR fusion” value [4] was “efficiently pulled down” and the “pull-down of endogenous DHFR” value (DHFR) was “specifically isolated”.

Reference: patent US10168323B2, “Compositions and methods for capture of cellular targets of bioactive agents” (Promega Corporation, priority 2013, dated 2019)
